Measured values from ChEMBL document CHEMBL1201862, “PubChem BioAssay data set” (2004).
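Cultured in 96-well plates, cells were exposed to test compound for 48 hours across five concentrations. Abbreviation: GI50, concentration required for 50% inhibition of growth.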 Calls of active or inactive are those of the source. Cut-off read from the data, not from the text of the source: active = GI50 up to about 1.1 µM and inactive = higher.

How the values were obtained:
Test in all cases: growth of human tumour cells (NCI), 48 h
OVCAR-8 = test system: OVCAR-8
SNB-75 = test system: SNB-75
MDA-MB-231 = test system: MDA-MB-231
KM12 = test system: KM12
PC-3 = test system: PC-3
SF-295 = test system: SF-295
SF-539 = test system: SF-539
786-0 = test system: 786-0
COLO 205 = test system: COLO 205
NCI-H226 = test system: NCI-H226
NCI-H522 = test system: NCI-H522
HOP-62 = test system: HOP-62
MOLT-4 = test system: MOLT-4
M14 = test system: M14
Hs-578T = test system: Hs-578T
RPMI-8226 = test system: RPMI-8226
SK-OV-3 = test system: SK-OV-3
OVCAR-3 = test system: OVCAR-3
CAKI-1 = test system: CAKI-1
SNB-19 = test system: SNB-19
TK-10 = test system: TK-10
A549 = test system: A549
MDA-N = test system: MDA-N
A498 = test system: A498
SF-268 = test system: SF-268
T47D = test system: T47D
SK-MEL-2 = test system: SK-MEL-2
IGROV-1 = test system: IGROV-1
RXF 393 = test system: RXF 393
SK-MEL-28 = test system: SK-MEL-28
Malme-3M = test system: Malme-3M
NCI-H460 = test system: NCI-H460
MCF7 = test system: MCF7
HCT-15 = test system: HCT-15
HCC 2998 = test system: HCC 2998
BT-549 = test system: BT-549
ACHN = test system: ACHN
U-251 = test system: U-251
NCI/ADR-RES = test system: NCI/ADR-RES
HCT-116 = test system: HCT-116
SN12C = test system: SN12C
OVCAR-4 = test system: OVCAR-4
UACC-257 = test system: UACC-257
CCRF-CEM = test system: CCRF-CEM
OVCAR-5 = test system: OVCAR-5
HT-29 = test system: HT-29
UACC-62 = test system: UACC-62
K562 = test system: K562
UO-31 = test system: UO-31
HOP-92 = test system: HOP-92
LOX IMVI = test system: LOX IMVI
SR = test system: SR
DU-145 = test system: DU-145
SW-620 = test system: SW-620
SK-MEL-5 = test system: SK-MEL-5
MDA-MB-435 = test system: MDA-MB-435
EKVX = test system: EKVX
HL-60 = test system: HL-60

For `CC(C)(C)c1cc(C(=O)/C=C/c2ccc(C(=O)O)cc2)cc(C(C)(C)C)c1`, the GI50 (OVCAR-8) was 2440 nM (inactive), the GI50 (SNB-75) was 885 nM (active) and the GI50 (MDA-MB-231) was 3870 nM (inactive). For the same compound, the GI50 (KM12) was 2400 nM (inactive), the GI50 (PC-3) was 4480 nM (inactive) and the GI50 (SF-295) was 2580 nM (inactive). The GI50 (SF-539) was 1360 nM (inactive), the GI50 (786-0) was 4090 nM (inactive) and the GI50 (COLO 205) was 2120 nM (inactive). For the same compound, the GI50 (NCI-H226) was 1530 nM (inactive), the GI50 (NCI-H522) was 4340 nM (inactive) and the GI50 (HOP-62) was 2320 nM (inactive). The GI50 (MOLT-4) was 2370 nM (inactive), the GI50 (M14) was 1500 nM (inactive) and the GI50 (Hs-578T) was 1420 nM (inactive). For the same compound, the GI50 (RPMI-8226) was 1160 nM (inactive), the GI50 (SK-OV-3) was 2870 nM (inactive) and the GI50 (OVCAR-3) was 2350 nM (inactive). For the same compound, the GI50 (CAKI-1) was 3860 nM (inactive), the GI50 (SNB-19) was 2360 nM (inactive) and the GI50 (TK-10) was 3370 nM (inactive). The GI50 (A549) was 2070 nM (inactive), the GI50 (MDA-N) was 2320 nM (inactive) and the GI50 (A498) was 1920 nM (inactive). The GI50 (SF-268) was 2180 nM (inactive), the GI50 (T47D) was 5560 nM (inactive) and the GI50 (SK-MEL-2) was 2940 nM (inactive). The GI50 (IGROV-1) was 3800 nM (inactive), the GI50 (RXF 393) was 1500 nM (inactive) and the GI50 (SK-MEL-28) was 2380 nM (inactive). The GI50 (Malme-3M) was 1420 nM (inactive), the GI50 (NCI-H460) was 1940 nM (inactive) and the GI50 (MCF7) was 3870 nM (inactive). The GI50 (HCT-15) was 1910 nM, the GI50 (HCC 2998) was 1820 nM (inactive) and the GI50 (BT-549) was 2210 nM (inactive). For the same compound, the GI50 (ACHN) was 4000 nM (inactive), the GI50 (U-251) was 3130 nM (inactive) and the GI50 (NCI/ADR-RES) was 2420 nM (inactive). For the same compound, the GI50 (HCT-116) was 2730 nM (inactive), the GI50 (SN12C) was 2110 nM (inactive) and the GI50 (OVCAR-4) was 6140 nM (inactive). For the same compound, the GI50 (UACC-257) was 10100 nM (inactive), the GI50 (CCRF-CEM) was 2910 nM (inactive) and the GI50 (OVCAR-5) was 4900 nM (inactive). For the same compound, the GI50 (HT-29) was 3050 nM (inactive), the GI50 (UACC-62) was 1770 nM (inactive) and the GI50 (K562) was 3210 nM (inactive). The GI50 (UO-31) was 5470 nM (inactive), the GI50 (HOP-92) was 6680 nM (inactive) and the GI50 (LOX IMVI) was 3200 nM (inactive). The GI50 (SR) was 2400 nM (inactive), the GI50 (DU-145) was 2770 nM (inactive) and the GI50 (SW-620) was 3420 nM (inactive). For the same compound, the GI50 (SK-MEL-5) was 3990 nM (inactive), the GI50 (MDA-MB-435) was 2160 nM (inactive) and the GI50 (EKVX) was 3190 nM (inactive). The GI50 (HL-60) was 3510 nM (inactive).
